Experimental findings from doi:10.1101/2025.06.07.658027v2 (biorxiv, 2025) are described below.

Holding throughout (assay): two-electrode voltage clamp, Xenopus oocytes
What all share (format): cell-based
For orientation: In two-electrode clamp one electrode senses voltage and the other passes current.

The target of assay [1] is T1, AalbOR10 (Aedes albopictus, UniProt A0ABM1Y0Z3).
T1 sequence (A0ABM1Y0Z3 1-403): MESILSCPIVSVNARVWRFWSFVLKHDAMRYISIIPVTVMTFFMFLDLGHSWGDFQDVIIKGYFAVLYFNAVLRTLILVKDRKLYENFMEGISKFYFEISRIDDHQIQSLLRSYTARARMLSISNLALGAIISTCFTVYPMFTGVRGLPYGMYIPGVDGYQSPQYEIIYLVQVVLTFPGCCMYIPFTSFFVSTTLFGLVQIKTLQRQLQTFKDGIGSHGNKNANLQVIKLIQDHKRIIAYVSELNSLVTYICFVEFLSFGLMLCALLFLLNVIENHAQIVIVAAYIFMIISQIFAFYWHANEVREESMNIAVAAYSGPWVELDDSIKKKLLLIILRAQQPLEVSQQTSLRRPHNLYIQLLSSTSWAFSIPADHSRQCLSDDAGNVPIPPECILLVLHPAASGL
T1 sequence (A0ABM1ZN50 1-479 partner): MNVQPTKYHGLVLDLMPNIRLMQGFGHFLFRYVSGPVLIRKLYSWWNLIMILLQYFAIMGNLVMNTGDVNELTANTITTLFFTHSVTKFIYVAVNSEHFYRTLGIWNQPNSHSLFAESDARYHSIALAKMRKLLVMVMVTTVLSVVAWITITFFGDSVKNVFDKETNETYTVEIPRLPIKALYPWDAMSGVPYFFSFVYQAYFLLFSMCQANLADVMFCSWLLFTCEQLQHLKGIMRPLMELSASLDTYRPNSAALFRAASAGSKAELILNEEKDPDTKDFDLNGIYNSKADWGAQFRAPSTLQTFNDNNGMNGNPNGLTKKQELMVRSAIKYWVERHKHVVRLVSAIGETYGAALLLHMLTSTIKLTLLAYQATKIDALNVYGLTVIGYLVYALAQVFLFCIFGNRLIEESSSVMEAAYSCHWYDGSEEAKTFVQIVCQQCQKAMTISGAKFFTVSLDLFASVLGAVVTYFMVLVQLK

For assay [2], the target named is T2, AalbOR2 (Aedes albopictus, UniProt A0ABM1YVB6).
T2 sequence (A0ABM1YVB6 1-376): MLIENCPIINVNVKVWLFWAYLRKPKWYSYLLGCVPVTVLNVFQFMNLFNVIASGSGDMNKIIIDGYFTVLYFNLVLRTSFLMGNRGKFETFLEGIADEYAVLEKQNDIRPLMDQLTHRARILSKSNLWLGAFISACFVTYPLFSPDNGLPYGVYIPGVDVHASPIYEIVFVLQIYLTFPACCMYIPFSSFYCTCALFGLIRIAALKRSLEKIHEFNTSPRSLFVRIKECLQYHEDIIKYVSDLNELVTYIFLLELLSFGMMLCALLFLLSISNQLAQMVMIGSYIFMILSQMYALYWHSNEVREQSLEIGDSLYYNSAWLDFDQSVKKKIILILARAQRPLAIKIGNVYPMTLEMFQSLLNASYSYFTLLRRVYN
T2 sequence (A0ABM1ZN50 1-479 partner): T1 sequence (A0ABM1ZN50 1-479 partner)

Assay [3] has as its target T3, AalbOR9 (Aedes albopictus, UniProt A0ABM1YMM4).
T3 sequence (A0ABM1YMM4 1-377): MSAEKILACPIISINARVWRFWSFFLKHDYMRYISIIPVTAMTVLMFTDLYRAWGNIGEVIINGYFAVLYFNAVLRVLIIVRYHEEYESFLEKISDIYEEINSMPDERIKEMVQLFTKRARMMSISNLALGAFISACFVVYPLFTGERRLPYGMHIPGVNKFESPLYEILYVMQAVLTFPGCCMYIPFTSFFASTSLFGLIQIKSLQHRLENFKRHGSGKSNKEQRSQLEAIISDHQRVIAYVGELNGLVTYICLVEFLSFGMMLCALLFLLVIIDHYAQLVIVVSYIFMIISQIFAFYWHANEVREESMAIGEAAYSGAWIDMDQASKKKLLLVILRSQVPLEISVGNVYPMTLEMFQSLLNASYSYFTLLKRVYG
T3 sequence (A0ABM1ZN50 1-479 partner): T1 sequence (A0ABM1ZN50 1-479 partner)

Regarding `Cc1c[nH]c2ccccc12` [skatole], the EC50 (usually the concentration at which the effect is half-maximal) in assay [1] came to 3900 nM; in assay [2] it was 10100 nM; in assay [3] it was 54 nM.

Regarding `c1ccc2[nH]ccc2c1` [indole], the EC50 stood at 23700 nM in assay [1], 770 nM in assay [2] and 1700 nM in assay [3].
